“Also recorded” adds a separate entry of the source.
What was measured:
HeLa cells [1] = test: Cell motility by xCelligence (CIM-plate); assay type: cell-based, human; details: 0.5 µM, 48 h, nontoxic concentration
Description: HeLa cells were seeded in tetraplicate at 2 × 10^4 cells per well in the upper chamber of CIM-plates, in the presence or absence of 5f at 0.5 µM. To stimulate cell migration, the lower chamber of the CIM-plate contained 10% FBS as chemoattractant. The cell index (electrical impedance) was monitored by the Real-Time Cell Analyzer Dual Plates (RTCA DP) xCelligence System (ACEA Biosciences, San Diego, CA, USA) every 1 h for 48 h.

HeLa cells [2] = test: Colony-forming assay; assay type: cell-based, human; details: 14 days
Description: HeLa cells were seeded in 96-well plates in tetraplicates at a density of 100 cells/well and treated by 5f (0.25, 0.5 µM) for 14 days under standard conditions. Then cell colonies were fixed with 4% paraformaldehyde, stained with crystal violet dye (0.1% w/v), and photographed using a Vilber Lourmat transilluminator (Marne La Vallee, France). The percentage of area covered by cell colonies was calculated using a ColonyArea ImageJ plugin [91].

HeLa cells [3] = test: Apoptosis assay by flow cytometry (annexin V-FITC/PI); assay type: cell-based, human; details: 48 h
Description: HeLa cells were seeded in 24-well plates at density of 5 × 10^4 cells per well and incubated under standard conditions for 24 h. Next, the cells were treated by compound 5f at 7 or 10 µM for a subsequent 48 h, followed by dissociation of cell monolayers into single cells by TrypLE Express (Gibco, Taastrup, Denmark) - and washing with cold PBS. Thereafter, cells were resuspended in binding buffer at concentration of 10^6 cells/mL. After double staining with Annexin V-FITC and propidium iodide (PI) from an Annexin V-FITC Apoptosis Detection Kit (Millipore, Bedford, MA, USA), cells were analyzed using a NovoCyte Flow Cytometer (ACEA Biosciences Inc., San Diego, CA, USA). For each sample, 10,000 events were acquired.

HeLa cells [4] = test: Mitochondrial membrane potential (JC-1, flow cytometry); assay type: cell-based, human; details: 48 h, JC-1, HeLa
Description: HeLa cells were cultured in 24-well plates for 24 h under standard conditions and treated by 5f at 7 or 10 µM for a subsequent 48 h. After the treatment, the cells were collected and resuspended at 10^6 cells/mL in PBS-contained JC-1 (5 µg/mL). After 30 min of incubation under standard conditions, the cells were centrifuged, washed with PBS, and analyzed using the NovoCyte Flow Cytometer (ACEA Biosciences Inc., San Diego, CA, USA). In total, 10,000 events were acquired for each sample.

[5] = Toxicity assessment in B16 melanoma-bearing mice; assay type: in vivo; details: five injections, 50 mg/kg i.p.
Description: To generate a metastatic model of tumor progression, 10^5 B16 melanoma cells suspended in 0.2 mL of saline buffer were inoculated into the lateral tail vein of C57Bl/6 mice. On day 4 after tumor transplantation, mice were divided into three groups (n = 9 per group): (1) mice without treatment (control); (2) mice who received intraperitoneal (i.p.) injections of 10% Tween-80 (vehicle); and (3) mice who received i.p. injections of 5f in 10% Tween-80 at a dose of 50 mg/kg. The treatment was carried out three times a week. The total number of injections was five. Mice were sacrificed on day 14 after B16 melanoma transplantation and the lungs were collected for calculation of surface metastases.
During the experiment, general status of the animals and body weight were monitored. At the end of the experiment, organs were collected and organ indexes were calculated as (organ weight / body weight) × 100%.

With `CC1(C)C2CC[C@]3(C)C(C(=O)C=C4[C@@H]5C[C@@](C)(c6nc(-c7ccccn7)no6)CC[C@]5(C)CC[C@]43C)[C@@]2(C)CC[C@@H]1O` (stereo partly drawn) [Compound 5f, 30-nor-3β-hydroxy-11-oxo-20-(3′-(pyridin-2′′-yl)-1′,2′,4′-oxadiazol-5′-yl)-18βH-olean-12-en] the “effect on motility of HeLa cells” value (HeLa cells [1]) was “statistically significant suppressed the motility of HeLa cells”, the “suppression of colony formation compared to the control” value (HeLa cells [2]; 0.5 µM) was “three-fold” and the “effect on clonogenic characteristics” value (HeLa cells [2]; lower concentration (0.25 µM)) was “had no effect on the clonogenic characteristics of HeLa cells”. The “early apoptotic cells (quadrant Q4-4)” value (HeLa cells [3]; 7 µM) was 12.5%, the “late apoptotic cells (quadrant Q4-2)” value (HeLa cells [3]; 7 µM) was 60.7% and the “early apoptotic cells (quadrant Q4-4)” value (HeLa cells [3]; 10 µM) was 8.1%. The “late apoptotic cells (quadrant Q4-2)” value (HeLa cells [3]; 10 µM) was 66.5%, the “necrotic cells (quadrant Q4-1)” value (HeLa cells [3]; 10 µM) was 14.2% and the “cells with collapsed membrane potential (gate P3)” value (HeLa cells [4]; 7 µM) was 72.5%. The “cells with collapsed membrane potential (gate P3)” value (HeLa cells [4]; 10 µM) was 85.2%, the “survival during the experiment” value [5] was “all 5f-treated mice were alive” and the “toxic effects in mice (organ indexes)” value ([5]; 50 mg/kg) was “did not cause toxic and unspecific immunomodulatory effects; also recorded: without systemic toxicity”.

— publication PMC7279002, “Novel 3′-Substituted-1′,2′,4′-Oxadiazole Derivatives of 18βH-Glycyrrhetinic Acid and Their O-Acylated Amidoximes: Synthesis and Evaluation of Antitumor and Anti-Inflammatory Potential In Vitro and In Vivo” (International Journal of Molecular Sciences, 2020)
